Results as given in PubChem BioAssay (NCI).
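All cell lines were grown in 96-well plates and treated with compound for 48 hours. At the GI50, growth is halved. TGI marks complete inhibition of growth.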

Experiments:
Assay in all cases: NCI-60 cell line screen, 48 h
U251 CNS = tested on: U251 CNS
SF-268 CNS = tested on: SF-268 CNS
T-47D breast = tested on: T-47D breast
HOP-62 NSCLC = tested on: HOP-62 NSCLC
UO-31 renal = tested on: UO-31 renal
HL-60(TB) leukemia = tested on: HL-60(TB) leukemia
ACHN renal = tested on: ACHN renal
EKVX NSCLC = tested on: EKVX NSCLC
RPMI-8226 leukemia = tested on: RPMI-8226 leukemia
MOLT-4 leukemia = tested on: MOLT-4 leukemia

`CCOC(=O)C(C)c1nc2cc(N3CCN(C)CC3)c(F)cc2[nH]c1=O` (stereo not given) showed a TGI (U251 CNS) greater than 100 µM, a TGI (SF-268 CNS) greater than 100 µM and a TGI (T-47D breast) greater than 100 µM. For the same compound, the TGI (HOP-62 NSCLC) was greater than 100 µM, the TGI (UO-31 renal) was greater than 100 µM and the TGI (HL-60(TB) leukemia) was greater than 100 µM. It also gave a TGI (ACHN renal) greater than 100 µM, a TGI (EKVX NSCLC) greater than 100 µM and a TGI (RPMI-8226 leukemia) greater than 100 µM. The TGI (MOLT-4 leukemia) was greater than 100 µM.
For `NC(=O)NCCCC(NC(=O)OCCCCCn1ccc(=O)[nH]c1=O)C(=O)O` (stereo not given), the TGI (U251 CNS) was greater than 100 µM, the TGI (SF-268 CNS) was greater than 100 µM and the TGI (T-47D breast) was greater than 100 µM. The TGI (HOP-62 NSCLC) was greater than 100 µM, the TGI (UO-31 renal) was greater than 100 µM and the TGI (HL-60(TB) leukemia) was greater than 100 µM. The TGI (ACHN renal) was greater than 100 µM, the TGI (EKVX NSCLC) was greater than 100 µM and the TGI (RPMI-8226 leukemia) was greater than 100 µM. For the same compound, the TGI (MOLT-4 leukemia) was greater than 100 µM.
For `O=C(c1ccccc1)N1C(=S)N(c2ccc([N+](=O)[O-])cc2)C(=Nc2ccccc2)C1=Nc1ccccc1`, the TGI (U251 CNS) was greater than 100 µM, the TGI (SF-268 CNS) was greater than 100 µM and the TGI (T-47D breast) was greater than 100 µM. It also gave a TGI (HOP-62 NSCLC) greater than 100 µM, a TGI (UO-31 renal) greater than 100 µM and a TGI (ACHN renal) greater than 100 µM. It also gave a TGI (EKVX NSCLC) greater than 100 µM, a TGI (RPMI-8226 leukemia) greater than 100 µM and a TGI (MOLT-4 leukemia) greater than 100 µM.
With `COc1ccc(C2(C3c4cc(OC)c(OC)cc4CCN3C)SCCCS2)cc1O` (stereo not given) the TGI (U251 CNS) was greater than 100 µM, the TGI (SF-268 CNS) was greater than 100 µM and the TGI (T-47D breast) was greater than 100 µM. It also gave a TGI (HOP-62 NSCLC) greater than 100 µM, a TGI (UO-31 renal) greater than 100 µM and a TGI (HL-60(TB) leukemia) greater than 100 µM. For the same compound, the TGI (EKVX NSCLC) was greater than 100 µM, the TGI (RPMI-8226 leukemia) was greater than 100 µM and the TGI (MOLT-4 leukemia) was greater than 100 µM.
`O=C(OCc1ccccc1)N1c2cc([N+](=O)[O-])ccc2C(=O)N2CCC[C@H]2C1O` (stereo not given in full) showed a TGI (U251 CNS) greater than 100 µM, a TGI (SF-268 CNS) greater than 100 µM and a TGI (T-47D breast) greater than 100 µM. It also gave a TGI (HOP-62 NSCLC) greater than 100 µM, a TGI (UO-31 renal) greater than 100 µM and a TGI (HL-60(TB) leukemia) greater than 100 µM. It also gave a TGI (ACHN renal) greater than 100 µM, a TGI (EKVX NSCLC) greater than 100 µM and a TGI (RPMI-8226 leukemia) greater than 100 µM. For the same compound, the TGI (MOLT-4 leukemia) was greater than 100 µM.
`CC(C)CCC[C@@H](C)[C@H]1CCC2C3=CCC4C(=O)C=CC(=O)C4C3CC[C@@]21C` (stereo not given in full) gave a GI50 (SF-268 CNS) of 0.566 µM, a TGI (SF-268 CNS) greater than 100 µM and a GI50 (T-47D breast) of 0.174 µM. The GI50 (HOP-62 NSCLC) was 0.552 µM, the TGI (HOP-62 NSCLC) was greater than 100 µM and the GI50 (UO-31 renal) was 0.0721 µM. It also gave a TGI (UO-31 renal) of 0.359 µM, a GI50 (HL-60(TB) leukemia) of 0.27 µM and a TGI (HL-60(TB) leukemia) greater than 100 µM. The GI50 (EKVX NSCLC) was 0.279 µM, the GI50 (RPMI-8226 leukemia) was 0.11 µM and the GI50 (MOLT-4 leukemia) was 0.373 µM. For the same compound, the TGI (MOLT-4 leukemia) was greater than 100 µM.
`OCC(O)C(O)C(O)C(/C=N\Nc1ncnc2ccc(Br)cc12)=N/Nc1ncnc2ccc(Br)cc12` (stereo not given) gave a TGI (U251 CNS) greater than 100 µM, a TGI (SF-268 CNS) greater than 100 µM and a TGI (T-47D breast) greater than 100 µM. The TGI (HOP-62 NSCLC) was greater than 100 µM, the TGI (UO-31 renal) was greater than 100 µM and the TGI (HL-60(TB) leukemia) was greater than 100 µM. It also gave a TGI (ACHN renal) greater than 100 µM, a TGI (EKVX NSCLC) greater than 100 µM and a TGI (RPMI-8226 leukemia) greater than 100 µM. For the same compound, the TGI (MOLT-4 leukemia) was greater than 100 µM.
`CS(=O)(=O)O.[Ag]` was tested, and the TGI (U251 CNS) was 30.6 µM, the TGI (SF-268 CNS) was 39.7 µM and the TGI (T-47D breast) was 5.5 µM. It also gave a TGI (HOP-62 NSCLC) of 65.9 µM, a TGI (UO-31 renal) of 3.52 µM and a TGI (HL-60(TB) leukemia) of 11.4 µM. For the same compound, the TGI (ACHN renal) was 16.8 µM, the TGI (EKVX NSCLC) was 38.4 µM and the TGI (RPMI-8226 leukemia) was 6.29 µM. For the same compound, the TGI (MOLT-4 leukemia) was 5.3 µM.
`O=C(O)C1SCCS1` gave a TGI (U251 CNS) greater than 100 µM, a TGI (SF-268 CNS) greater than 100 µM and a TGI (T-47D breast) greater than 100 µM. The TGI (HOP-62 NSCLC) was greater than 100 µM, the TGI (UO-31 renal) was greater than 100 µM and the TGI (HL-60(TB) leukemia) was greater than 100 µM. It also gave a TGI (ACHN renal) greater than 100 µM, a TGI (EKVX NSCLC) greater than 100 µM and a TGI (RPMI-8226 leukemia) greater than 100 µM. The TGI (MOLT-4 leukemia) was greater than 100 µM.
Compound `CN(c1ccccc1Cl)S(=O)(=O)c1ccccc1[N+](=O)[O-]` has a TGI (U251 CNS) greater than 100 µM, a TGI (SF-268 CNS) greater than 100 µM and a TGI (T-47D breast) greater than 100 µM. It also gave a TGI (HOP-62 NSCLC) greater than 100 µM, a TGI (UO-31 renal) greater than 100 µM and a TGI (HL-60(TB) leukemia) greater than 100 µM. For the same compound, the TGI (EKVX NSCLC) was greater than 100 µM, the TGI (RPMI-8226 leukemia) was greater than 100 µM and the TGI (MOLT-4 leukemia) was greater than 100 µM.
